Active and inactive are the calls of the source. The rule behind the calls is not given here.
Molecular target: T1, N-arachidonyl glycine receptor (Homo sapiens) (UniProt Q14330)
T1 sequence (whole entry): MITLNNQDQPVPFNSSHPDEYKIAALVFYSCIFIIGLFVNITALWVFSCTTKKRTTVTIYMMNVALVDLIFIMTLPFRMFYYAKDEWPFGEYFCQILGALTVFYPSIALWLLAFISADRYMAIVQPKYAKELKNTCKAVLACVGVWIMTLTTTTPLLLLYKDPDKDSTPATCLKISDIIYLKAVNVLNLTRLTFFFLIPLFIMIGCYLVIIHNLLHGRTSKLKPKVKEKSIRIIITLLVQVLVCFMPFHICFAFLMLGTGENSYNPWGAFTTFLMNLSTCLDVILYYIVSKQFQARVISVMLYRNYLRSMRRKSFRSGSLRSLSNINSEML
Test: Agonist activity at human GPR18 expressed in CHO cells assessed as induction of beta-arrestin recruitment by beta-galactosidase enzyme fragment complementation method relative to delta9-THC
Type: cell-based
Parameters: concentration or dose not given beside the values

SMILES | Activity [%]
O=C1/C(=C/c2ccc(F)cc2F)N=C2SCCCN12 | 11
O=C1/C(=C/c2cccc(Cl)c2)N=C2SCCCN12 | 0
O=C1/C(=C/c2cccc(Cl)c2Cl)N=C2SCCCN12 | 17

Molecular target: T2, Cannabinoid receptor 2 (Homo sapiens, UniProt P34972)
Test: Displacement of [3H]CP55,940 from human recombinant CB2 receptor expressed in HEK293 cells
Type: cell-based

T2 sequence (P34972 whole entry): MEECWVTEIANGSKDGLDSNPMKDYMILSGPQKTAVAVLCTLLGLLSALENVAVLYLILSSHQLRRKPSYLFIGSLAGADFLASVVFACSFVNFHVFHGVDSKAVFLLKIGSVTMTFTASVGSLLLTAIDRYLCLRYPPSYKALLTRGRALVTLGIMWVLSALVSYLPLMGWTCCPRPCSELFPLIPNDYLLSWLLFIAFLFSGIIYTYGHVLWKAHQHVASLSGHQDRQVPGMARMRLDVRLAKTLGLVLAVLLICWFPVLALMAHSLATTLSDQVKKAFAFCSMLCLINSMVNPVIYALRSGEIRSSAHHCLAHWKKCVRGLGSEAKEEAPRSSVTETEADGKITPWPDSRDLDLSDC

SMILES | Ki [µM]
O=C1/C(=C/c2ccc(F)cc2F)N=C2SCCCN12 | > 10
CCCCC/C=C\C/C=C\C/C=C\C/C=C\CCCC(=O)O[C@H](CO)COP(=O)(O)O[C@@H]1[C@@H](O)[C@H](O)[C@@H](O)[C@H](O)[C@@H]1O | > 10
O=C1/C(=C/c2cccc(Cl)c2)N=C2SCCCN12 | > 10
O=C1/C(=C/c2cccc(Cl)c2Cl)N=C2SCCCN12 | > 10

Molecular target: T3, G-protein coupled receptor 55 (Homo sapiens, UniProt Q9Y2T6)
Test: Antagonist activity against human GPR55 expressed in CHO cells assessed as reduction in LPI-induced beta-arrestin recruitment by beta-galactosidase enzyme fragment complementation method
Type: cell-based

T3 sequence (Q9Y2T6 whole entry, the tested form may be a part): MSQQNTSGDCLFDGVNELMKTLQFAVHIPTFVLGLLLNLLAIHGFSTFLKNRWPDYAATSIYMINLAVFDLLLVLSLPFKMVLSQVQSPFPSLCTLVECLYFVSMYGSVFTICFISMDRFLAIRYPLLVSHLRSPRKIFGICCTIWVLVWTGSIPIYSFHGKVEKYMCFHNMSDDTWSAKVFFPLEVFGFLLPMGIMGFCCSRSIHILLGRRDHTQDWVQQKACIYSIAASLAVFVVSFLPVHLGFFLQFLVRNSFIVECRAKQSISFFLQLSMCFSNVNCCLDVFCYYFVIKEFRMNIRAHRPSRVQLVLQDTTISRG

SMILES | IC50 [µM]
O=C1/C(=C/c2ccc(F)cc2F)N=C2SCCCN12 | 3.46
O=C1/C(=C/c2cccc(Cl)c2)N=C2SCCCN12 | ≥ 10
O=C1/C(=C/c2cccc(Cl)c2Cl)N=C2SCCCN12 | 6.91

Molecular target: Cannabinoid receptor 1 (Rattus norvegicus) (UniProt P20272)
Test: Displacement of [3H]CP55,940 from CB1 receptor in rat brain cortical membranes at 10 uM
Type: cell membranes

Sequence of Cannabinoid receptor 1 (Rattus norvegicus) (P20272 whole entry): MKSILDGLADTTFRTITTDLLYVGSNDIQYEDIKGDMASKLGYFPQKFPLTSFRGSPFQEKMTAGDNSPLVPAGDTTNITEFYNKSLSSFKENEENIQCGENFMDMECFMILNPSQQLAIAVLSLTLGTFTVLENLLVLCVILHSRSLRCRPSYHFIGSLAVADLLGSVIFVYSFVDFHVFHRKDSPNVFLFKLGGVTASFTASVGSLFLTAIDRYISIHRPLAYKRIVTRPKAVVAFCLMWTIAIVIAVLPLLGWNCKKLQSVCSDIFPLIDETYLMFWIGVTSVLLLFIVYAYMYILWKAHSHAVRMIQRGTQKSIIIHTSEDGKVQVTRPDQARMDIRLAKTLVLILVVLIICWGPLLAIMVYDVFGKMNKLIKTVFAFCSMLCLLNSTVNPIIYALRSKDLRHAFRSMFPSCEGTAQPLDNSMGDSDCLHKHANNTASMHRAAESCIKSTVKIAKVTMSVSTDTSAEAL

SMILES | inhibition [%]
O=C1/C(=C/c2cccc(Cl)c2)N=C2SCCCN12 | 6
O=C1/C(=C/c2cccc(Cl)c2Cl)N=C2SCCCN12 | 6

Molecular target: T1, N-arachidonyl glycine receptor (Homo sapiens)
Test: Antagonist activity against human GPR18 expressed in CHO cells assessed as reduction in delta9-THC-induced beta-arrestin recruitment at 10 uM by beta-galactosidase enzyme fragment complementation method
Type: cell-based

SMILES | inhibition [%]
O=C1/C(=C/c2ccc(F)cc2F)N=C2SCCCN12 | 6
CCCCC/C=C\C/C=C\C/C=C\C/C=C\CCCC(=O)O[C@H](CO)COP(=O)(O)O[C@@H]1[C@@H](O)[C@H](O)[C@@H](O)[C@H](O)[C@@H]1O | 15
O=C1/C(=C/c2cccc(Cl)c2)N=C2SCCCN12 | 14
O=C1/C(=C/c2cccc(Cl)c2Cl)N=C2SCCCN12 | 0

Molecular target: T4, Cannabinoid receptor 1 (Homo sapiens, UniProt P21554)
Test: Displacement of [3H]CP55,940 from human recombinant CB1 receptor expressed in CHO-K1 cells
Type: cell-based

T4 sequence (P21554 whole entry): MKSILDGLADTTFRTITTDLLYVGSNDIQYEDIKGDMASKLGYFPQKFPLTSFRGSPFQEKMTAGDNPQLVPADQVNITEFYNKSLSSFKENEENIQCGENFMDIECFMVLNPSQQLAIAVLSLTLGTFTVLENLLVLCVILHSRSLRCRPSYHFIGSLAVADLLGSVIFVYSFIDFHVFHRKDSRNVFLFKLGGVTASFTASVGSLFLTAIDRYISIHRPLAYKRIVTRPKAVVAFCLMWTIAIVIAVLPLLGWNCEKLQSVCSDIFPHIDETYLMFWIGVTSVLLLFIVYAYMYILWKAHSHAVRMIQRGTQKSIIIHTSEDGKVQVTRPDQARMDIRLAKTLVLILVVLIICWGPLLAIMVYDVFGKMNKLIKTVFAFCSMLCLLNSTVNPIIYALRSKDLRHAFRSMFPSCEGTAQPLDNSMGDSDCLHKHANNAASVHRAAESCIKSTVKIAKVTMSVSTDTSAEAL

SMILES | Ki [µM]
O=C1/C(=C/c2ccc(F)cc2F)N=C2SCCCN12 | > 10
CCCCC/C=C\C/C=C\C/C=C\C/C=C\CCCC(=O)O[C@H](CO)COP(=O)(O)O[C@@H]1[C@@H](O)[C@H](O)[C@@H](O)[C@H](O)[C@@H]1O | > 10
O=C1/C(=C/c2cccc(Cl)c2)N=C2SCCCN12 | > 10
O=C1/C(=C/c2cccc(Cl)c2Cl)N=C2SCCCN12 | > 10

Molecular target: T4, Cannabinoid receptor 1
Test: Intrinsic activity at human recombinant CB1 receptor expressed in HEK293 cell membranes assessed as stimulation of [35S]GTPgammaS binding at 10 uM by liquid scintillation counting method relative to CP55,940
Type: functional

Intrinsic activity [%] | SMILES
-80 | Cc1c(C(=O)NN2CCOCC2)nn(-c2ccc(Cl)cc2Cl)c1-c1ccc(I)cc1

Molecular target: T2, Cannabinoid receptor 2
Test: Displacement of [3H]CP55,940 from human recombinant CB2 receptor expressed in HEK293 cells at 10 uM
Type: cell-based

SMILES | inhibition [%]
O=C1/C(=C/c2ccc(F)cc2F)N=C2SCCCN12 | 0
CCCCC/C=C\C/C=C\C/C=C\C/C=C\CCCC(=O)O[C@H](CO)COP(=O)(O)O[C@@H]1[C@@H](O)[C@H](O)[C@@H](O)[C@H](O)[C@@H]1O | 0
O=C1/C(=C/c2cccc(Cl)c2)N=C2SCCCN12 | 2
O=C1/C(=C/c2cccc(Cl)c2Cl)N=C2SCCCN12 | 40

Molecular target: T4, Cannabinoid receptor 1
Test: Agonist activity at human recombinant CB1 receptor expressed in CHO-K1 cell membranes assessed effect on forskolin-induced cAMP accumulation at 10 uM
Type: functional, cell-based

Activity | SMILES
inactive | Cc1c(C(=O)NN2CCOCC2)nn(-c2ccc(Cl)cc2Cl)c1-c1ccc(I)cc1

Molecular target: T3, G-protein coupled receptor 55
Test: Agonist activity at human GPR55 expressed in CHO cells assessed as induction of LPI-induced beta-arrestin recruitment by beta-galactosidase enzyme fragment complementation method relative to LPI
Type: cell-based
Parameters: concentration or dose not given beside the values

SMILES | Activity [%]
O=C1/C(=C/c2ccc(F)cc2F)N=C2SCCCN12 | 0
O=C1/C(=C/c2cccc(Cl)c2)N=C2SCCCN12 | 9
O=C1/C(=C/c2cccc(Cl)c2Cl)N=C2SCCCN12 | 3

Molecular target: T2, Cannabinoid receptor 2
Test: Agonist activity at human recombinant CB2 receptor expressed in CHO-K1 cell membranes assessed effect on forskolin-induced cAMP accumulation at 10 uM
Type: functional, cell-based

Activity | SMILES
inactive | Cc1c(C(=O)NN2CCOCC2)nn(-c2ccc(Cl)cc2Cl)c1-c1ccc(I)cc1

Molecular target: T3, G-protein coupled receptor 55
Test: Inverse agonist activity against human GPR55 expressed in CHO cells assessed as reduction in LPI-induced beta-arrestin recruitment at 30 uM by beta-galactosidase enzyme fragment complementation method
Type: cell-based

SMILES | inhibition
O=C1/C(=C/c2ccc(F)cc2F)N=C2SCCCN12 | Active

Molecular target: Cannabinoid receptor 1 (Rattus norvegicus, UniProt P20272)
Test: Displacement of [3H]CP55,940 from CB1 receptor in rat brain cortical membranes
Type: cell membranes

Sequence of Cannabinoid receptor 1 (Rattus norvegicus, UniProt P20272) (P20272 whole entry): as the sequence (P20272 whole entry) above

SMILES | Ki [µM]
O=C1/C(=C/c2cccc(Cl)c2)N=C2SCCCN12 | > 10
O=C1/C(=C/c2cccc(Cl)c2Cl)N=C2SCCCN12 | > 10

Molecular target: T3, G-protein coupled receptor 55
Test: Allosteric antagonist activity against human GPR55 expressed in CHO cells assessed as induction of rightward shift of concentration response curve of LPI-induced beta-arrestin recruitment at 10 uM by beta-galactosidase enzyme fragment complementation method
Type: cell-based

SMILES | Allosteric antagonist activity
O=C1/C(=C/c2ccc(F)cc2F)N=C2SCCCN12 | Active
O=C1/C(=C/c2cccc(Cl)c2Cl)N=C2SCCCN12 | Active

Molecular target: Cannabinoid receptor 1 (Rattus norvegicus) (UniProt P20272)
Test: Intrinsic activity at CB1 receptor in rat brain cortical membranes assessed as stimulation of [35S]GTPgammaS binding at 10 uM by liquid scintillation counting method relative to CP55,940
Type: functional, cell membranes

Intrinsic activity [%] | SMILES
-42 | Cc1c(C(=O)NN2CCOCC2)nn(-c2ccc(Cl)cc2Cl)c1-c1ccc(I)cc1

Molecular target: T3, G-protein coupled receptor 55
Test: Agonist activity at human GPR55 expressed in HEK293 cells assessed as increase in oscillation Ca2+ transients by fura-2 dye based fluorescence analysis
Type: functional, cell-based

EC50 [µM] | SMILES
13.6 | Cc1c(C(=O)NN2CCOCC2)nn(-c2ccc(Cl)cc2Cl)c1-c1ccc(I)cc1
0.63 | Cc1c(C(=O)NN2CCCCC2)nn(-c2ccc(Cl)cc2Cl)c1-c1ccc(I)cc1

Organism: Rattus norvegicus
Test: Displacement of [3H]diazepam from GABAA receptor in rat brain cortical membranes at 10 uM
Type: cell membranes

SMILES | inhibition [%]
O=C1/C(=C/c2ccc(F)cc2F)N=C2SCCCN12 | 34
O=C1/C(=C/c2cccc(Cl)c2)N=C2SCCCN12 | 57

Molecular target: T4, Cannabinoid receptor 1
Test: Displacement of [3H]CP55,940 from human recombinant CB1 receptor expressed in CHO-K1 cells at 10 uM
Type: cell-based

SMILES | inhibition [%]
O=C1/C(=C/c2ccc(F)cc2F)N=C2SCCCN12 | 13
CCCCC/C=C\C/C=C\C/C=C\C/C=C\CCCC(=O)O[C@H](CO)COP(=O)(O)O[C@@H]1[C@@H](O)[C@H](O)[C@@H](O)[C@H](O)[C@@H]1O | 0
O=C1/C(=C/c2cccc(Cl)c2)N=C2SCCCN12 | 30
O=C1/C(=C/c2cccc(Cl)c2Cl)N=C2SCCCN12 | 12

Molecular target: not listed separately
Test: Displacement of [3H]diazepam from GABAA receptor in rat brain cortical membranes
Type: cell membranes

SMILES | Ki [µM]
O=C1/C(=C/c2ccc(F)cc2F)N=C2SCCCN12 | > 10
O=C1/C(=C/c2cccc(Cl)c2)N=C2SCCCN12 | 10

Molecular target: T5, N-arachidonyl glycine receptor (Homo sapiens, UniProt Q14330)
T5 sequence (Q14330 whole entry): T1 sequence (whole entry)
Test: Antagonist activity against human GPR18 expressed in CHO cells assessed as reduction in delta9-THC-induced beta-arrestin recruitment by beta-galactosidase enzyme fragment complementation method
Type: cell-based

SMILES | IC50 [µM]
O=C1/C(=C/c2ccc(F)cc2F)N=C2SCCCN12 | > 10
CCCCC/C=C\C/C=C\C/C=C\C/C=C\CCCC(=O)O[C@H](CO)COP(=O)(O)O[C@@H]1[C@@H](O)[C@H](O)[C@@H](O)[C@H](O)[C@@H]1O | > 10
O=C1/C(=C/c2cccc(Cl)c2)N=C2SCCCN12 | > 10
O=C1/C(=C/c2cccc(Cl)c2Cl)N=C2SCCCN12 | > 10

Molecular target: T3, G-protein coupled receptor 55
Test: Antagonist activity against human GPR55 expressed in CHO cells assessed as reduction in LPI-induced beta-arrestin recruitment at 10 uM by beta-galactosidase enzyme fragment complementation method
Type: cell-based

SMILES | inhibition [%]
O=C1/C(=C/c2cccc(Cl)c2)N=C2SCCCN12 | 42

Molecular target: T3, G-protein coupled receptor 55
Test: Agonist activity at human GPR55 expressed in CHO cells assessed as induction of LPI-induced beta-arrestin recruitment by beta-galactosidase enzyme fragment complementation method
Type: cell-based

SMILES | EC50 [µM]
CCCCC/C=C\C/C=C\C/C=C\C/C=C\CCCC(=O)O[C@H](CO)COP(=O)(O)O[C@@H]1[C@@H](O)[C@H](O)[C@@H](O)[C@H](O)[C@@H]1O | 1

Source: ChEMBL document CHEMBL3217528, “Bicyclic imidazole-4-one derivatives: a new class of antagonists for the orphan G protein-coupled receptors GPR18 and GPR55” (Medchemcomm, 2014)
